Measurements reported in US20040208828A1, “Enantiomer-pure (4S,8S)- and (4R,8R)-4-p-nitrobenzyl-8-methyl-3,6,9-triaza-3N,6N,9N-tricarboxymethyl-1,11-undecanedioic acid and derivatives thereof, process for their production and use for the production of pharmaceutical agents” (priority 2003, published 2004).

What was measured:
[1] = McMurry et al., J. Med. Chem. (1998), 41, 3546-3549; cited from earlier work
[2] = complex stability / complexing properties, comparison of stereoisomers; format: physicochemical; settings: comparison of configurations (4S,8S)/(4R,8R) with (4S,8R)/(4R,8S)
Source text: (§1) In this case, as was discovered, the configuration of methyl- and benzyl substituent must be present as (4S,8S) (see compound Va) or (4R,8R) (see compound Vb) to achieve the described positive effect.

[3] = thermodynamic stability constant of the metal complex (logKY); format: physicochemical; settings: in vitro
Source text: as §1

[4] = radiotoxicity of the metal complex in vivo; settings: compared to compound VIa
Source text: as §1

[5] = competition complexation: mixture of one equivalent each of Va, VIa and Gd(III) salt; format: physicochemical; settings: one equivalent each of Va (R=-NO2)
Source text: as §1

[6] = compared to the unsubstituted DTPA; cited from earlier work

## O=C(O)CN(CC(=O)O)[C@H](Cc1ccc([N+](=O)[O-])cc1)CN(CC(=O)O)[C@@H]1CCCC[C@H]1N(CC(=O)O)CC(=O)O [II]
[1]
  in-vitro and in-vivo stability: higher in-vitro and in-vivo stability than compound III

## C[C@H](CN(CC(=O)O)C[C@@H](Cc1ccc([N+](=O)[O-])cc1)N(CC(=O)O)CC(=O)O)N(CC(=O)O)CC(=O)O [Vb, (R,R)-{[2-{[2-(Bis-carboxymethyl-amino)-propyl]-carboxymethyl-amino}-1-(4-nitro-benzyl)-ethyl]-carboxymethyl-amino}-acetic acid]
[2]
  complex stability / complexing properties (in words): considerably better complexing properties than compounds VIa and VIb

## C[C@@H](CN(CC(=O)O)C[C@H](Cc1ccc([N+](=O)[O-])cc1)N(CC(=O)O)CC(=O)O)N(CC(=O)O)CC(=O)O [Va]
[3]
  thermodynamic stability constant logKY: 24.7±0.7
[2]
  complex stability / complexing properties (in words): considerably better complexing properties than compounds VIa and VIb
[4]
  radiotoxicity of the metal complex: reduced in vivo compared to compound VIa
[5]
  Gd complex formed in competition: almost exclusively the Gd complex of compound Va is formed

## CC(CN(CC(=O)O)C[C@H](Cc1ccc([N+](=O)[O-])cc1)N(CC(=O)O)CC(=O)O)N(CC(=O)O)CC(=O)O (stereo partly shown) [MX-DTPA]
[6]
  complex stability (in words): increased complex stability compared to the unsubstituted DTPA
